# Test results as given in patent US8999998B2, “Pyrazolopyrimidine JAK inhibitor compounds and methods” (Genentech, Inc., priority 2009, dated 2015).
# Experiments:
# Format in all cases: biochemical
# [1] = biological target: TYK2 kinase domain (Homo sapiens (Human), UniProt P29597); assay: TYK2 inhibition assay (Caliper LabChip, isolated kinase domain); settings: 25 uM ATP, 1 nM TYK2; read-out: TYK2 enzymatic activity (Ki)
# Description: (§1) The catalytically active kinase domain of human JAK1, JAK2, JAK3 or TYK2 was purified from extracts of SF9 insect cells infected with a recombinant baculovirus expression vector encoding the human JAK1, JAK2, JAK3 or TYK2 kinase domains (JAK1 amino acid residues N852-D1154 according to the numbering of GenBank sequence accession number P23458, JAK2 amino acid residues D812-G1132 according to the numbering of GenBank sequence accession number NP_004963.1; JAK3 amino acid residues S783-S1124 according to the numbering of GenBank sequence accession number P52333, and TYK2 amino acid residues N873-C1187 according to the numbering of GenBank sequence accession number P29597). The activity of the JAK1, JAK2, JAK3 or TYK2 kinase domains can be measured by a number of direct and indirect methods, including quantification of phosphorylation of peptide substrates derived from the human JAK3 protein (Saltzman et al., Biochem. Biophys. Res. Commun. 246:627-633 (2004)). The activity of the JAK1, JAK2, JAK3 or TYK2 kinase domains was measured in vitro by monitoring phosphorylation of JAK3 derived peptides using the Caliper LabChip technology (see Examples).
# (§2) The activity of the isolated JAK1, JAK2 or TYK2 kinase domain was measured by monitoring phosphorylation of a peptide derived from JAK3 ([…] fluorescently labeled on the N-terminus with 5-carboxyfluorescein using the Caliper LabChip technology (Caliper Life Sciences, Hopkinton, Mass.). […] Reactions were incubated at 22° C. in 384-well polypropylene microtiter plates for 30 minutes and then stopped by addition of 25 uL of an EDTA containing solution (100 mM Hepes pH 7.2, 0.015% Brij-35, 150 mM EDTA), resulting in a final EDTA concentration of 50 mM. After termination of the kinase reaction, the proportion of phosphorylated product was determined as a fraction of total peptide substrate using the Caliper LabChip 3000 according to the manufacturer's specifications. Ki values were then determined using the Morrison tight binding model. Morrison, J. F., Biochim. Biophys. Acta. 185:269-296 (1969); William, J. W. and Morrison, J. F., Meth. Enzymol., 63:437-467 (1979).
# [2] = biological target: JAK3 kinase domain (Homo sapiens (Human), UniProt P52333); assay: JAK3 inhibition assay (Caliper LabChip, isolated kinase domain); settings: 5 uM ATP, 5 nM JAK3; read-out: JAK3 enzymatic activity (Ki)
# Description: as §1, with “Previous studies have shown that the isolated kinase domains of human JAK1, JAK2, JAK3 or TYK2 phosphorylate peptide substrates in in vitro kinase assays (Saltzman et al., Biochem. Biophys. Res. Commun. 246:627-633 (2004)). The catalytically” for “The catalytically”
# as §2, with “JAK3” for “JAK1, JAK2 or TYK2”
# [3] = biological target: JAK1 kinase domain (Homo sapiens (Human), UniProt P23458); assay: JAK1 inhibition assay (Caliper LabChip, isolated kinase domain); settings: 25 uM ATP, 1.5 nM JAK1; read-out: JAK1 enzymatic activity (Ki)
# Description: as §1, §2
# [4] = biological target: JAK2 kinase domain (Homo sapiens (Human), UniProt O60674); assay: JAK2 inhibition assay (Caliper LabChip, isolated kinase domain); settings: 25 uM ATP, 0.2 nM JAK2; read-out: JAK2 enzymatic activity (Ki)
# Description: as §1, §2
# TYK2 kinase domain, sequence (P29597 873-1187): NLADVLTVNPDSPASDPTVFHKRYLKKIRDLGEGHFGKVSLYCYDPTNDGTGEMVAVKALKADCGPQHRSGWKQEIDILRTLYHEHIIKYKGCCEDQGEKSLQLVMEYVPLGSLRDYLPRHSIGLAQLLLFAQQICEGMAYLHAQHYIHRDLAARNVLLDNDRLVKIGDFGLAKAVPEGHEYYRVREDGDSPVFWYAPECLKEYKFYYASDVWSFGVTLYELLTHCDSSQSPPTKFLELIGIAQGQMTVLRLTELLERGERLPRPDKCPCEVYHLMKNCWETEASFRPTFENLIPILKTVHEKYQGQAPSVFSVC
# JAK2 kinase domain, sequence (O60674 812-1132): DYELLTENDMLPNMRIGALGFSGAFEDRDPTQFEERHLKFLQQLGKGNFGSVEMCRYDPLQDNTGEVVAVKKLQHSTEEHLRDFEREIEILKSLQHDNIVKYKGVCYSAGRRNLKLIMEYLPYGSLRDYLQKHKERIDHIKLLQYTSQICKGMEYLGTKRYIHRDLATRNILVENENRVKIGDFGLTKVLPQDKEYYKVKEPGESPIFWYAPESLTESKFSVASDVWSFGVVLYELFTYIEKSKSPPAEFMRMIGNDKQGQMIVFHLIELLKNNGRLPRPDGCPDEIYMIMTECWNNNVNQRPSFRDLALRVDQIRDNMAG
# JAK1 kinase domain, sequence (P23458 852-1154): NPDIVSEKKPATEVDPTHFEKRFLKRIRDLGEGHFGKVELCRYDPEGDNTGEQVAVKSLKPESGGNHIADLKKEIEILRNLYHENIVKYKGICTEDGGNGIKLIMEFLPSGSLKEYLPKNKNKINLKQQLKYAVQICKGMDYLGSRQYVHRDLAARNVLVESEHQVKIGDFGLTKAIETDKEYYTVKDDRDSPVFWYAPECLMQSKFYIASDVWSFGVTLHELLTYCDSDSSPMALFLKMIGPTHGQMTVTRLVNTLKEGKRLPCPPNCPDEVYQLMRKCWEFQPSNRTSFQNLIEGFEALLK
# JAK3 kinase domain, sequence (P52333 783-1124): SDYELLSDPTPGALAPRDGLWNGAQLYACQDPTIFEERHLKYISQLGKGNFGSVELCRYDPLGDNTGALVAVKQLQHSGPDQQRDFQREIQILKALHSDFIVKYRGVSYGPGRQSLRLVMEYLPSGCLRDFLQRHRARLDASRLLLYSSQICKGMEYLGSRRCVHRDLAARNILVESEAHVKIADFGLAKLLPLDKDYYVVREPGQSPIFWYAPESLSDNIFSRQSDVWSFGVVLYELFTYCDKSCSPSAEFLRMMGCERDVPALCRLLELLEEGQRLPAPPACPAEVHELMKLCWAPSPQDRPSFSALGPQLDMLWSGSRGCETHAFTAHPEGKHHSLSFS
Ki [1] [nM],Ki [2] [nM],Ki [3] [nM],Ki [4] [nM],Compound
76,210,3.8,12.5,"CCOc1ccc(Cl)cc1-c1nn([C@H]2CCCC[C@@H]2O)cc1NC(=O)c1cnn2cccnc12 (stereo in doubt) [Example 414, N-(3-(5-chloro-2-ethoxyphenyl)-1-((1S,2S)-2-hydroxycyclohexyl)-1H-pyrazol-4-yl)pyrazolo[1,5-a]pyrimidine-3-carboxamide And N-(3-(5-chloro-2-ethoxyphenyl)-1-((1R,2R)-2-hydroxycyclohexyl)-1H-pyrazol-4-yl)pyrazolo[1,5-a]pyrimidine-3-carboxamide]"
99.6,152,46.2,4.9,"Cc1cc(NC(=O)c2cnn3cccnc23)n(-c2cc(Cl)ccc2C)n1 [Example 6, N-(1-(5-chloro-2-methylphenyl)-3-methyl-1H-pyrazol-5-yl)pyrazolo[1,5-a]pyrimidine-3-carboxamide]"
131,102,40.3,5.7,"Cc1cc(NC(=O)c2cnn3cccnc23)n(-c2cc(C#N)ccc2Cl)n1 [Example 38, N-(1-(2-chloro-5-cyanophenyl)-3-methyl-1H-pyrazol-5-yl)pyrazolo[1,5-a]pyrimidine-3-carboxamide]"
104,73.9,35.1,3.3,"Cc1cc(NC(=O)c2cnn3cccnc23)n(-c2cc(Cl)ccc2Cl)n1 [Example 41, N-(1-(2,5-dichlorophenyl)-3-methyl-1H-pyrazol-5-yl)pyrazolo[1,5-a]pyrimidine-3-carboxamide]"
480,140,131,18,"Cc1cc(NC(=O)c2cnn3cccnc23)n(-c2ccccc2Br)n1 [Example 44, N-(1-(2-bromophenyl)-3-methyl-1H-pyrazol-5-yl)pyrazolo[1,5-a]pyrimidine-3-carboxamide]"
98,150,83.7,15.2,"O=C(Nc1ccnn1-c1ccccc1Cl)c1cnn2cccnc12 [Example 51, N-(1-(2-chlorophenyl)-1H-pyrazol-5-yl)pyrazolo[1,5-a]pyrimidine-3-carboxamide]"
850,–,1200,159,"O=C(Nc1ccnn1-c1ccc(Cl)cc1)c1cnn2cccnc12 [Example 54, N-(1-(4-chlorophenyl)-1H-pyrazol-5-yl)pyrazolo[1,5-a]pyrimidine-3-carboxamide]"
140,200,153,23,"O=C(Nc1ccncc1-c1cccc(F)c1)c1cnn2cccnc12 [Example 63, N-(3-(3-fluorophenyl)pyridin-4-yl)pyrazolo[1,5-a]pyrimidine-3-carboxamide]"
5.6,18,4.4,1,"COc1ccc(Cl)cc1-c1c(NC(=O)c2cnn3cccnc23)cnn1CCO [Example 109, N-(5-(5-chloro-2-methoxyphenyl)-1-(2-hydroxyethyl)-1H-pyrazol-4-yl)pyrazolo[1,5-a]pyrimidine-3-carboxamide]"
350,1500,12,38.5,"COc1cnc(C(F)(F)F)cc1-c1nn(CC(C)(C)O)cc1NC(=O)c1cnn2cccnc12 [Example 143, N-(1-(2-hydroxy-2-methylpropyl)-3-(5-methoxy-2-(trifluoromethyl)pyridin-4-yl)-1H-pyrazol-4-yl)pyrazolo[1,5-a]pyrimidine-3-carboxamide]"
65,210,4.2,2.6,COc1ccc(C#N)cc1-c1nn(Cc2ncnn2C)cc1NC(=O)c1cnn2cccnc12 [Example 155]
6.6,53,4.8,1.5,"COc1ncc(C#N)cc1-c1n[nH]cc1NC(=O)c1cnn2cccnc12 [Example 158, N-(3-(5-Cyano-2-methoxypyridin-3-yl)-1H-pyrazol-4-yl)pyrazolo[1,5-a]pyrimidine-3-carboxamide]"
2.1,13,0.7,0.4,"COc1ccc(Cl)cc1-c1nc(C)sc1NC(=O)c1cnn2cccnc12 [Example 170, N-(4-(5-chloro-2-methoxyphenyl)-2-methylthiazol-5-yl)pyrazolo[1,5-a]pyrimidine-3-carboxamide]"
980,4100,775,110,"O=C(Nc1c[nH]nc1-n1cc(Cl)ccc1=O)c1cnn2cccnc12 [Example 194, N-(3-(5-chloro-2-oxopyridin-1(2H)-yl)-1H-pyrazol-4-yl)pyrazolo[1,5-a]pyrimidine-3-carboxamide]"
2.3,5.5,2.1,0.5,"COc1ccc(Cl)cc1-c1c(NC(=O)c2c(N)nn3cccnc23)cnn1CC(N)=O [Example 217, 2-amino-N-(1-(2-amino-2-oxoethyl)-5-(5-chloro-2-methoxyphenyl)-1H-pyrazol-4-yl)pyrazolo[1,5-a]pyrimidine-3-carboxamide]"
9.1,270,0.7,3.1,"COc1ccc(Cl)cc1-c1nn(CC(=O)N2CCCC2C)cc1NC(=O)c1cnn2cccnc12 (centres unmarked) [Example 283, N-(3-(5-chloro-2-methoxyphenyl)-1-(2-(2-methylpyrrolidin-1-yl)-2-oxoethyl)-1H-pyrazol-4-yl)pyrazolo[1,5-a]pyrimidine-3-carboxamide]"
10,170,0.5,2.5,"COc1ccc(Cl)cc1-c1nn(CC(=O)N2CC=CCC2)cc1NC(=O)c1cnn2cccnc12 [Example 300, N-(3-(5-chloro-2-methoxyphenyl)-1-(2-(5,6-dihydropyridin-1(2H)-yl)-2-oxoethyl)-1H-pyrazol-4-yl)pyrazolo[1,5-a]pyrimidine-3-carboxamide]"
46,690,1,4.2,"COc1ccc(C#N)cc1-c1nn(CC2(O)CCCC2)cc1NC(=O)c1cnn2cccnc12 [Example 359, N-(3-(5-cyano-2-methoxyphenyl)-1-((1-hydroxycyclopentyl)methyl)-1H-pyrazol-4-yl)pyrazolo[1,5-a]pyrimidine-3-carboxamide]"
